The text below walks through data of ChEMBL document CHEMBL1130716, “The solid phase synthesis of a series of tri-substituted hydantoin ligands for the somatostatin SST5 receptor” (Bioorg Med Chem Lett, 1998).

pIC50: −log10 of the molar value. The source made the active and inactive calls. The calls are words filed in the database; no cut-off is given here.

Assay type in all cases: cell-based
Assay [1] addresses T1, Somatostatin receptor type 5 (Homo sapiens, UniProt P35346). Nature of the assay: Compound was tested for inhibition of specific [125I]Tyr11-SRIF binding to human recombinant SST5 (somatostatin) receptor expressed in CHO-K1 cells.
Assay [2] addresses Somatostatin receptor type 2 (Homo sapiens) (UniProt P30874). Nature of the assay: Tested for inhibitory activity at human recombinant sst 2 receptors expressed in CHO-K1 cells; No inhibition showed more than 50% inhibition.
The target of assay [3] is T1, Somatostatin receptor type 5. Nature of the assay: Compound was tested for inhibition of specific [125I]-Tyr11-SRIF binding to human recombinant SST5 (somatostatin) receptor expressed in CHO-K1 cells at 10e-6 M concentration.

T1 sequence (P35346 whole entry): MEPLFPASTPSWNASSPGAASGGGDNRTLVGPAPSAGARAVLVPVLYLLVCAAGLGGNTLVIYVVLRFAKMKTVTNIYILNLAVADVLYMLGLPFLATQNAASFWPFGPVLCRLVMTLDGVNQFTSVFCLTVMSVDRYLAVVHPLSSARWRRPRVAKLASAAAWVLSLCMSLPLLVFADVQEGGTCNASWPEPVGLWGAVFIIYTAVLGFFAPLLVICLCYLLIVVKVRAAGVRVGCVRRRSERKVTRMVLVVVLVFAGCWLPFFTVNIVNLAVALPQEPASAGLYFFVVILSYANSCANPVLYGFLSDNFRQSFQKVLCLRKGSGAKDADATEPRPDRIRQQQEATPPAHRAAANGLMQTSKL
Somatostatin receptor type 2 (Homo sapiens), sequence (P30874 whole entry): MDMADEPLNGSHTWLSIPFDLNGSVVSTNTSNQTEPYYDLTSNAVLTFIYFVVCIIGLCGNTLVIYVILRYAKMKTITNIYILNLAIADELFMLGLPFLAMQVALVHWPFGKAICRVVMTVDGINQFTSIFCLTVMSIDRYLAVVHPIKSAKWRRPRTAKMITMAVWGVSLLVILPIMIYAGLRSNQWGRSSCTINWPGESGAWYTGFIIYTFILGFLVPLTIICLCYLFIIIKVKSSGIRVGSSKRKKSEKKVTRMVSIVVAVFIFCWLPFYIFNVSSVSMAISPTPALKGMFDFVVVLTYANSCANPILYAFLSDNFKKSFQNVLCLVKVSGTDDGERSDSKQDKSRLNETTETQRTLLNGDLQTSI

On to `O=C1[C@H](Cc2cccc3ccccc23)N(CCC#Cc2ccccc2)C(=O)N1CCN1CCCC1`, for which the pIC50 (commonly the negative decadic logarithm of the IC50, by convention in mol/L) in assay [1] is 6.40. Also, the outcome in assay [2] was inactive.

Take `COc1ccc(CCCCN2C(=O)N(CCN3CCCC3)C(=O)[C@@H]2Cc2cccc3ccccc23)cc1`: the inhibition – broadly, the share of the control response that was lost under treatment – in assay [3] was determined as 60%. The outcome in assay [2] was inactive.

In the case of `NCCCC[C@@H](NC(=O)CC1SC(c2ccccc2)N([C@@H](Cc2ccc(-c3ccccc3)cc2)C(N)=O)C1=O)C(N)=O` (some centres undefined), the pIC50 in assay [1] was 5.85. The result in assay [2] was inactive.

Consider `O=C1[C@H](Cc2ccc(OCc3ccccc3)cc2)N(CCC#Cc2ccccc2)C(=O)N1CCN1CCCC1`, for which, in assay [1], the pIC50 was 6.50. Further, the outcome in assay [2] was inactive.

As for `COc1ccc(CCCCN2C(=O)N(CCN3CCCC3)C(=O)[C@@H]2Cc2ccc(OCc3ccccc3)cc2)cc1`, the pIC50 in assay [1] was 6.30. The result in assay [2] was inactive.

On to `O=C1[C@H](Cc2cccc3ccccc23)N(CCCCc2ccccc2)C(=O)N1CCN1CCCC1`, for which, in assay [3], the inhibition came out at 49%. Also, the result in assay [2] was inactive.

Regarding `O=C1[C@H](Cc2ccc(OCc3ccccc3)cc2)N(CCCCc2ccccc2)C(=O)N1CCN1CCCC1`, the pIC50 in assay [1] was 6.50. The result in assay [2] was inactive.
